Results from article PMC5133556, “Design of a hydroxyapatite-binding antimicrobial peptide with improved retention and antibacterial efficacy for oral pathogen control” (Scientific Reports, 2016).
Converted amounts (≈) assume the structure as drawn. Residues, ends and D or L forms follow the SMILES beside them.

Key:
S. mutans = assay: Time-kill assay; type: cell-based, Streptococcus mutans; conditions: 0.12%, 10^6 CFU/mL, CFU counts
Experimental: The time-kill kinetics of HBAMP against S. mutans was determined by time-kill assay as previously described. S. mutans was grown to exponential phase and diluted to 10^6 CFU/mL in growth medium. […] Bacterial suspension in other tubes that were added with 0.12% CHX and PBS served as the positive and blank control groups, respectively. At time points of 0, 10, 20, 30, 40, 60, and 90 min, 10 μL of cell suspension was collected, serially diluted in PBS and then 50 μL of aliquots were plated onto BHI agar plates. Colony forming units were counted after the plates were incubated anaerobically at 37 °C for 24 h.

[1] = system: Actinomyces viscosus (ATCC 19246); type: cell-based; conditions: ATCC 19246, 24 h
Experimental: (§1) Streptococcus sanguinis (ATCC 10556), Actinomyces viscosus (ATCC 19246), Streptococcus mutans (ATCC 25175), were grown in Brain Heart Infusion (BHI; Difco, Detroit, MI, USA) culture medium. Lactobacillus acidophilus (ATCC 4356) was grown in de Man, Rogosa and Sharpe (MRS; Difco, Detroit, MI, USA) culture medium. BHIS (BHI with 2% sucrose) was used for growing S. mutans biofilm. All cultures were grown anaerobically (80% N2, 10% H2 and 10% CO2) at 37 °C. According to the growth curve of bacteria, the exponentially growing cells were harvested by centrifugation and diluted in BHI or MRS to 10^6 CFU/mL based on a regression line derived from McFarland turbidity standards (Pro-Lab Diagnostics, Richmond Hill, ON, Canada).
(§2) MIC and MBC assays were conducted according to the consensus guidelines developed by the Clinical and Laboratory Standards Institute (CLSI)[24]. Two-fold serial dilutions of peptides were prepared in culture medium at a volume of 200 μl/well in 96-well plates and the final concentrations of peptides ranged from 31.25 μg/ml to 2000 μg/ml. Chlorhexidine (0.12%) and culture medium were included as the positive and control group, respectively. Then each well was seeded with 20 μL of bacterial cell suspension (10^6 CFU/mL). The plates were incubated anaerobically at 37 °C for 24 h. The MIC was defined as the lowest concentration of peptide that prevents visible growth of the bacteria tested. […] The MBC was defined as the lowest concentration of peptide resulting in no colony formation on agar plates. All determinations were made from triplicate experiments.

[2] = system: Lactobacillus acidophilus (ATCC 4356); type: cell-based; conditions: ATCC 4356, 24 h
Experimental: as §1, §2

[3] = system: Streptococcus mutans (ATCC 25175); type: cell-based; conditions: ATCC 25175, 24 h
Experimental: as §1, §2

[4] = system: Streptococcus sanguinis (ATCC 10556); type: cell-based; conditions: ATCC 10556, 24 h
Experimental: as §1, §2

S. mutans biofilm = type: cell-based; conditions: 250 μg/ml (2× MIC), 10 min treatment of 12 h biofilm on HAp
Experimental: S. mutans biofilms were grown on the surface of HAp disks that were placed in 24-well plate. Each well of the plate was inoculated with 2 ml of S. mutans in BHIS (10^6 CFU/mL). After incubation anaerobically at 37 °C for 12 h, the HAp disks were washed twice with sterile deionized water and then respectively treated with HBAMP (2× and 4× MIC) and CHX (0.12%) for 10 min. Then biofilms were stained for 20 min in the dark using the LIVE/DEAD® BacLight^TM Bacterial Viability Kit. The biofilm without treatment served as control. Stained biofilms were photographed by CLSM with a 20× objective. Three independent biofilm experiments were performed.

in vitro = in vitro ADME; conditions: both sexes, human, cerebrospinal or other body fluid
Experimental: The protocols in this section were approved by the Ethics Committee of Zhongshan Hospital, Xiamen University. The methods employed were performed in accordance with the approved guidelines. After acquiring informed consent, human saliva was collected from individual volunteers (two males and two females; Minimum age: 22; maximum age: 28) in the morning prior to oral cleaning. The collected saliva samples were centrifuged at 12,000 rpm for 20 min. The supernatant was collected and filtered through the […] membrane filter to remove any debris. HBAMP was added into the human saliva to achieve the final concentration of 500 μg/ml. The saliva with HBAMP was incubated at 37 °C. At 0, 5, 20 and 60 min, 1 ml samples were taken from the total sample and served in the specific sample bottles, the machine will automatically extract samples from the bottles to detect. The samples were analysed by reversed-phase HPLC using Zorbax Eclipse XDB-C18 analytical column (150 × 4.6 mm, Agilent Technologies, Inc., Santa Clara, CA, USA) protected by a XDB-C18 guard column (4 × 4 mm). For the elution of HBAMP, a flow rate of 1.2 mL/min and a linear gradient from 88:12 to 65:35 (0.1% TFA in water: 0.1% TFA in acetonitrile) for 10 min were employed. Total run time of HPLC-UV (215 nm) analysis was 15 min and the injection volume was set at 40 μL.

Row | Compound | time to kill S. mutans (S. mutans) [min] | MBC, A. viscosus [1] [µg/mL] | MIC, A. viscosus [1] [µg/mL] | MBC, L. acidophilus [2] [µg/mL] | MIC, L. acidophilus [2] [µg/mL] | MBC, S. mutans [3] [µg/mL] | MIC, S. mutans [3] [µg/mL] | MBC, S. sanguinis [4] [µg/mL] | MIC, S. sanguinis [4] [µg/mL] | bacteria killed in S. mutans biofilm (S. mutans biofilm) | remaining at 1 h, 500 μg/ml (in vitro) [%]
1 | [H]/N=C(\N/C(=N/[H])NCCCCCCNC(=N)NC(=N)Nc1ccc(Cl)cc1)Nc1ccc(Cl)cc1 [CHX, chlorhexidine] | ≤ 10 |  |  |  |  |  |  |  |  |  | 
2 | CC(C)C[C@H](NC(=O)[C@H](Cc1ccc(O)cc1)NC(=O)[C@H](Cc1c[nH]cn1)NC(=O)[C@H](CC(N)=O)NC(=O)[C@@H](N)CC(N)=O)C(=O)N1CCC[C@H]1C(=O)N[C@@H](CCCNC(=N)N)C(=O)NCC(=O)NCC(=O)NCC(=O)N[C@@H](CCCCN)C(=O)N[C@@H](CCCCN)C(=O)N[C@H](C(=O)N[C@H](C(=O)N[C@@H](Cc1ccccc1)C(=O)N[C@@H](Cc1c[nH]c2ccccc12)C(=O)N[C@H](C(=O)N[C@@H](CCCCN)C(=O)N[C@@H](Cc1ccccc1)C(=O)N[C@@H](CCCCN)C(=O)O)C(C)C)C(C)C)C(C)C [HBAMP] (H-NNHYLPRGGGKKVVFWVKFK-OH) |  | 500 (≈ 211 µM) | 250 (≈ 105 µM) | 250 (≈ 105 µM) | 125 (≈ 52.6 µM) | 250 (≈ 105 µM) | 125 (≈ 52.6 µM) | 2000 (≈ 842 µM) | 500 (≈ 211 µM) | approximately 44.7% | 80.5
3 | CC(C)[C@H](NC(=O)[C@H](Cc1c[nH]c2ccccc12)NC(=O)[C@H](Cc1ccccc1)NC(=O)[C@@H](NC(=O)[C@@H](NC(=O)[C@H](CCCCN)NC(=O)[C@@H](N)CCCCN)C(C)C)C(C)C)C(=O)N[C@@H](CCCCN)C(=O)N[C@@H](Cc1ccccc1)C(=O)N[C@@H](CCCCN)C(=O)O [KSLW, reference compound] (H-KKVVFWVKFK-OH) |  | 500 (≈ 382 µM) | 125 (≈ 95.5 µM) | 125 (≈ 95.5 µM) | 62.5 (≈ 47.8 µM) | 125 (≈ 95.5 µM) | 62.5 (≈ 47.8 µM) | 2000 (≈ 1530 µM) | 250 (≈ 191 µM) |  | 
